# Like-named read-outs stand apart in the source and are kept apart here.
# Key:
# BCRP/MDCK = settings: 5 μM; cited from earlier work
# [1] = dog, 1 μM; cited from earlier work
# [2] = tested on: CYP mRNA expression (CYP1A2, CYP2B, CYP3A); settings: 0.5 to 50 μM, 48 h
# P-gp/Caco-2 = settings: 5 μM; cited from earlier work
# [3] = human, 1 μM; cited from earlier work
# BV2 microglia cell line = settings: cited from earlier work
smiles,measurement,setting,value
"CN1CCN(c2cc(-c3ccncc3)c(-c3ccc4ccccc4c3)nn2)CC1 [Compound 11, 6-(4-Methylpiperazin-1-yl)-3-(naphthalen-2-yl)-4-(pyridin-4-yl)pyridazine]",Permeability MDCK,BCRP/MDCK,highly permeable
same,Pump substrate status BCRP,BCRP/MDCK,Not substrate
same,Hepatocyte stability T1/2,[1],"Human, T1/2 > 120 min; dog, T1/2 > 120 min (see ref ([14]))"
same,CYP induction,[2],Negative (see Experimental Section)
same,Permeability Caco-2,P-gp/Caco-2,highly permeable
same,Pump substrate status P-gp,P-gp/Caco-2,Not substrate
same,Hepatocyte stability T1/2,[3],"Human, T1/2 > 120 min; dog, T1/2 > 120 min (see ref ([14]))"
same,"cell proliferation, migration, or phagocytosis",BV2 microglia cell line,"No effect on cell proliferation, migration, or phagocytosis"

# Reference: paper PMC6580366 (Journal of Medicinal Chemistry, 2019)
